Measured values: US9428507B2, “Compounds for the treatment of malaria” (The Broad Institute, Inc., priority 2013, dated 2016)
pEC50: −log10 of the molar value. Like-named read-outs stand apart in the source and are kept apart here.

Test system: Dd2 strain of P. falciparum
Experiment: Activity against the Dd2 strain of P. falciparum (SYBR Green I, 72-h incubation)
Format: cell-based
Conditions: read-out: EC^50 Dd2
How it was run: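 Dd2 parasites at 1% parasitemia and 1.0% hematocrit in albumax II screening medium, 72 h at 37° C under 93% N2/4% CO2/3% O2; final DMSO 0.125%. Growth read as SYBR Green I fluorescence (485/530 nm) after lysis and 24 h staining. 20 μM mefloquine defined background, DMSO baseline.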

[1] = Plasmodium falciparum, DD2, 72 h

Molecule: COc1ccc2c3c([nH]c2c1)[C@@H](CO)N(Cc1ccncc1)CC31CCN(Cc2ccc(-c3ccccn3)cc2)CC1 [Compound 133, (S)-(7′-methoxy-1-(4-(pyridin-2-yl)benzy1)-2′-(pyridin-4-ylmethyl)-1′,2′,3′,9′-tetrahydrospiro [piperidine-4,4′-pyrido[3,4-b]indol]-1′-yl)methanol]
- pEC50 [1]: 6.21

Molecule: COc1ccc2c3c([nH]c2c1)[C@H](CO)N(Cc1ccncc1)CC31CN(Cc2ccc(-c3ccccn3)cc2)C1 [Compound 134, (R)-(7′-methoxy-1-(4-(pyridin-2-yl)benzyl)-2′-(pyridin-4-ylmethyl)-1′,2′,3′,9′-tetrahydrospiro [azetidine-3,4′-pyrido[3,4-b]indol]-1′-yl)methanol]
- pEC50 [1]: 5.53

Molecule: COc1ccc2c3c(n(C)c2c1)[C@H](CO)N(Cc1ccc(Cl)cc1)CC31CCN(CC2CC2)CC1 [Compound 135, (R)-(2′-(4-chlorobenzyl)-1-(cyclopropylmethyl)-7′-methoxy-9′-methyl-1′,2′,3′,9′-tetrahydrospiro [piperidine-4,4′-pyrido[3,4-b]indol]-1′-yl) methanol]
- pEC50 [1]: 5.65

Molecule: COc1ccc2c3c([nH]c2c1)[C@H](CO)N(C(C)=O)CC31CCN(c2nc3ccccc3[nH]2)CC1 [Compound 136, (R)-1-(1-(1H-benzo[d]imidazol-2-yl)-1′-(hydroxymethyl)-7′-methoxyspiro[piperidine-4,4′-pyrido[3,4-b]indol]-2′(1′H,3′H,9′H)-yl) ethanone]
- pEC50 [1]: 5.61

Molecule: COc1ccc2c3c([nH]c2c1)[C@H](CO)N(C(C)=O)CC31CCN(c2nc3ccccc3s2)CC1 [Compound 137, (R)-1-(1-(benzo[d]thiazol-2-yl)-1′-(hydroxymethyl)-7′-methoxyspiro [piperidine-4,4′-pyrido[3,4-b]indol]-2′(1′H,3′H,9′H)-yl) ethanone]
- pEC50 [1]: 5.24

Molecule: CC(=O)Oc1ccc2c3c([nH]c2c1)[C@H](CO)N(C(C)=O)CC31CCN(C(=O)Nc2ccccc2F)CC1 [Compound 138, (R)-1-(1-(benzo[d]thiazol-2-yl)-1′-(hydroxymethyl)-7′-methoxyspiro [piperidine-4,4′-py(R)-2′-acetyl-1-((2-fluorophenyl)carbamoyl)-1′-(hydroxymethyl)-1′,2′,3′,9′-tetrahydrospiro [piperidine-4,4′-pyrido[3,4-b]indol]-7′-ylacetaterido[3,4-b]indol]-2′(1′H,3′H,9′H)-yl)ethanone]
- pEC50 [1]: 5.35

Molecule: COc1cc2[nH]c3c(c2cc1OC)C1(CCN(C(=O)Nc2ccccc2F)CC1)CN(C(C)=O)[C@H]3CO [Compound 139, (R)-2′-acetyl-N-(2-fluorophenyl)-1′-(hydroxymethyl)-6′,7′-d imethoxy-1′,2′,3′,9′-tetrahydrospiro [piperidine-4,4′-pyrido[3,4-b]indole]-1-carboxamide]
- pEC50 [1]: 5.24

Molecule: COc1ccc2c3c([nH]c2c1)[C@H]1COCC(=O)N1CC31CCN(C(=O)Nc2ccccc2F)CC1 [Compound 140, (S)-N-(2-fluorophenyl)-10-methoxy-4-oxo-1,3,4,6,12,12b-hexahydrospiro [[1,4]oxazino[4′,3′:1 ,2]pyrido[3,4-b]indole-7,4′-piperidine]-1′-carboxamide]
- pEC50 [1]: 5.61

Molecule: CC(=O)N1CC2(CCN(C(=O)Nc3ccccc3F)CC2)c2c([nH]c3cc(OC(C)C)ccc23)[C@@H]1CO [Compound 141, (R)-2′-acetyl-N-(2-fluorophenyl)-1′-(hydroxymethyl)-7′-isopropoxy-1′,2′,3′,9′-tetrahydrospiro [piperidine-4,4′-pyrido[3,4-b]indole]-1-carboxamide]
- pEC50 [1]: 5.17

Molecule: CC(=O)N1CC2(CCN(C(=O)Nc3ccccc3F)CC2)c2c([nH]c3cc(O)ccc23)[C@@H]1CO [Compound 142, (R)-2′-acetyl-N-(2-fluorophenyl)-7′-hydroxy-1′-(hydroxymethyl)-1′,2′,3′,9′-tetrahydrospiro [piperidine-4,4′-pyrido[3,4-b]indole]-1-carboxamide]
- pEC50 [1]: 5.22

Molecule: COc1ccc2c3c([nH]c2c1)[C@H](CO)N(Cc1ccccc1)CC31CCN(C(=O)Nc2ccccc2F)CC1 [Compound 143, (R)-2′-benzyl-N-(2-fluorophenyl)-1′-(hydroxymethyl)-7′-methoxy-1′,2′,3′,9′-tetrahydrospiro [piperidine-4,4′-pyrido[3,4-b]indole]-1-carboxamide]
- pEC50 [1]: 5.30

Molecule: COc1ccc2c3c([nH]c2c1)[C@H](CO)N(S(=O)(=O)c1ccc(C)cc1)CC31CCN(C(=O)Nc2ccccc2F)CC1 [Compound 144, (R)-N-(2-fluorophenyl)-1′-(hydroxymethyl)-7′-methoxy-2′-tosyl-1′,2′,3′,9′-tetrahydrospiro [piperidine-4,4′-pyrido[3,4-b]indole]-1-carboxamide]
- pEC50 [1]: 5.97

Molecule: COc1ccc2c3c([nH]c2c1)[C@H](CO)N(S(=O)(=O)C1CC1)CC31CCN(C(=O)Nc2ccccc2F)CC1 [Compound 145, (R)-2′-(cyclopropylsulfonyl)-N-(2-fluorophenyl)-1′-(hydroxymethyl)-7′-methoxy-1′,2′,3′,9′-tetrahydrospiro [piperidine-4,4′-pyrido[3,4-b]indole]-1-carboxamide]
- pEC50 [1]: 6.95

Molecule: COc1ccc2c3c([nH]c2c1)[C@H](CO)N(S(=O)(=O)C(F)(F)F)CC31CCN(C(=O)Nc2ccccc2F)CC1 [Compound 146, (R)-N-(2-fluorophenyl)-1′-(hydroxymethyl)-7′-methoxy-2′-((trifluoromethyl)sulfonyl)-1′,2′,3′,9′-tetrahydrospiro [piperidine-4,4′-pyrido[3,4-b]indole]-1-carboxamide]
- pEC50 [1]: 6.57

Molecule: COc1ccc2c3c([nH]c2c1)[C@H](CO)N(S(=O)(=O)c1ccccc1)CC31CCN(C(=O)Nc2ccccc2F)CC1 [Compound 147, (R)-N-(2-fluorophenyl)-1′-(hydroxymethyl)-7′-methoxy-2′-(phenylsulfonyl)-1′,2′,3′,9′-tetrahydrospiro [piperidine-4,4′-pyrido+[,4-b]indole]-1-carboxamide]
- pEC50 [1]: 6.41

Molecule: CCS(=O)(=O)N1CC2(CCN(C(=O)OC(C)(C)C)CC2)c2c([nH]c3cc(OC)ccc23)[C@@H]1CO [Compound 148, (R)-tert-butyl 2′-(ethylsulfonyl)-1′-(hydroxymethyl)-7′-methoxy-1′,2′,3′,9′-tetrahydrospiro [piperidine-4,4′-pyrido[3,4-b]indole]-1-carboxylate]
- pEC50 [1]: 5.07

Molecule: CCCS(=O)(=O)N1CC2(CCN(C(=O)Nc3ccccc3F)CC2)c2c([nH]c3cc(OC)ccc23)[C@@H]1CO [Compound 149, (R)-N-(2-fluorophenyl)-1′-(hydroxymethyl)-7′-methoxy-2′-(propylsulfonyl)-1′,2′,3′,9′-tetrahydrospiro [piperidine-4,4′-pyrido[3,4-b]indole]-1-carboxamide]
- pEC50 [1]: 6.66

Molecule: CCS(=O)(=O)N1CC2(CCN(C(=O)Nc3ccccc3F)CC2)c2c([nH]c3cc(OC)ccc23)[C@@H]1CO [Compound 150, (R)-2′-(ethylsulfonyl)-N-(2-fluorophenyl)-1′-(hydroxymethyl)-7′-methoxy-1′,2′,3′,9′-tetrahydrospiro [piperidine-4,4′-pyrido[3,4-b]indole]-1-carboxamide]
- pEC50 [1]: 7.24 to 7.85

Molecule: Mixture of (1R,3′R) and (1R,3′S)-2-acetyl-1- (((tert-butyldimethylsilyl) oxy)methyl)-N- (2-fluorophenyl)-7-methoxy- 1,2,3,9-tetrahydrospiro [pyrido[3,4-b]indole- 4,3′-pyrrolidine]-1′- carboxamide compound with (1R,3′S)- 2-acetyl-1- (((tert-butyldimethylsilyl) oxy)methyl)-N-(2- fluorophenyl)-7-methoxy- 1,2,3,9- tetrahydrospiro[pyrido [3,4-b]indole-4-3′- pyrrolidine]-1′- carboxamide (1:1) [Compound 75]
- pEC50: 5.49

Molecule: Mixture of (1R,3′R) and (1R,3′S)-tert-butyl 2-acetyl-1-(((tert- butyldimethylsilyl)oxy) methyl)-7-methoxy- 1,2,3,9- tetrahydrospiro [pyrido[3,4-b]indole- 4,3′-pyrrolidine]-1′- carboxylate compound with (1R,3′S)-tert-butyl 2-acetyl-1- (((tert-butyldimethylsilyl) oxy)methyl)-7- methyoxy-1,2,3,9- tetrahydrospiro[pyrido [3,4-b]indole-4,3′- pyrrolidine]-1′- carboxylate (1:1) [Compound 76]
- pEC50: 5.83

Molecule: Mixture of (1R,3′R) and (1R,3′s)-2-acetyl-N-(2- fluorophenyl)-1- (hydroxymethyl)-7- methoxy-1,2,3,9- tetrahydrospiro[pyrido [3,4-b]indole-4,3′- pyrrolidine]-1′- carboxamide compound with (1R,3′S)-2- acetyl-N-(2- fluorophenyl)-1- (hydroxymethyl)-7- methoxy- 1,2,3,9-tetrahydrospiro [pyrido[3,4-b] indole-4,3′-pyrrolidine]- 1′-carboxamide (1:1) [Compound 72]
- pEC50: 4.78
